# Assay results as given in patent EP2292241A1, “A SCUTELLARIN DERIVATIVE, THE PREPARING PROCESS, THE PHARMACEUTICAL COMPOSITION AND THE USE THEREOF” (Kunming Pharmaceutical Corp., priority 2008, dated 2009).
# Experiments:
# [1] = test system: rats with MCAO induced focal cerebral ischemia; assay: focal cerebral ischemia induced by MCAO (middle cerebral artery occlusion) in rats; assay type: in vivo, SD rat; conditions: for range of cerebral infarction: TTC stain, % of bilateral cerebral hemispheres weight; for behavior score: full score 12, higher = more severe; for rate of platelet aggregation: ADP-induced, turbidimetry; for range of cerebral infarction rate of decrease: compared with the modeling group; for indicators of coagulation APTT / indicators of coagulation FIB / indicators of coagulation PT / indicators of coagulation TT: plasma 24h after modeling
# Method: Male SD rats, weighing 240~290g, grouping and dosages were as above. Additionally, a positive control group, i.e., nimodipine 50mg/kg group was set up. Animals of each group were gavage once daily for consecutive 5 days in predetermined dosage. At 30 minute after the last administration, the animals were anesthetized with 12% chloral hydrate in 350 mg/kg via intraperitoneal injection. The animals were kept left lateral position and the skin was cut along the middle point between right ear and eye line. Temporalis was separated and cheekbone was sheared. A holl was drilled with a dental drill in front of zygomatic root and MCA was exposed. The MCA was hooked with a needle between the vein and olfactory tract in the brain, then was broke, after bleeding was stopped with a cotton ball, muscle and skin layer was sutured in layer. For the sham group, except for no breaking of MCA, other steps were same.
# The animals were scored on neurological functions at 6 hour and 24 hour after modeling, according to behavior such as movement. Such score was used as an indicator of brain dysfunction. […] The standards of grading were as follows;
# The full score of the above standards is 12. The higher the score is, the more severe the behavior disorder is.
# 24 hour after modeling and after neurological scoring, blood was taken via carotid artery intubation in duplicate. For one sample, serum was separated and the activity of AST and LDH was determined according to the method of the kit; for another sample, it was treated with 3.8% sodium citrate in 1:9 for the purpose of anticoagulation, centrifuged at 1000rpm for 5 minutes to prepare platelet rich plasma (PRP), and centrifuged at 3500rpm for 10 minutes to prepare platelet poor plasma (PPP). The rate of platelet aggregation induced by ADP-2Na was determined according to turbidimetry, the final concentration of ADP was […]; TT, PT, APTT and FIB was determined according to the method of the kit, respectively. The brain was removed quickly by decollation after blood taking, and then placed into ice cold saline solution to remove olfactory bulb, cerebellum and brainstem. The brain was weighed after water being absorbed to dryness, and then cut into 5 pieces along the coronal, placed into a 5ml solution containing 4% TTC and 0.1ml K2HPO4 (1mol/L) and incubated for 30 minutes at 37°C and in darkness. During the course every 7 to 8 minutes a turning was made. […] The infracted part was cut and weighed. The percentage of infracted tissue accounting for the total weight of bilateral cerebral hemispheres was calculated by weight area method, which was the range of cerebral infarction.
# [2] = test system: rats with myocardial ischemia caused by coronary artery ligation; assay: myocardial ischemia caused by coronary artery ligation in rats; assay type: in vivo, SD rat; conditions: for rate of platelet aggregation: ADP-induced, turbidimetry; for range of myocardial infarction: TTC stain, infarcted part as % of ventricle weight; for range of myocardial infarction rate of decrease: compared with the modeling group; for indicators of coagulation APTT / indicators of coagulation FIB / indicators of coagulation PT / indicators of coagulation TT: plasma 24h after ligation
# Method: Male SD rats of 330~385g were divided at random into sham group, model group, breviscapine tablet of 40mg/kg group, A1 20mg/kg group and A1 40mg/kg group. Animals of each group were gavage once daily for consecutive 5 days in predetermined dosage, for blank group and model group, the rats were given same volume of 0.5% CNC-Na in 10ml/kg body weight. At 30 minute after the last administration, the animals were anesthetized with 12% chloral hydrate in 350 mg/kg via intraperitoneal injection, then a thoracotomy was performed to render the heart exposed. The left anterior descending coronary artery was found between pulmonary artery cone and left ventricular and was ligated at 2-3mm to the root. Reposited the heart and closed the thoracic cavity. For the sham group, the suture was merely placed but not ligated.
# II lead limb ECGs before ligation and at 5min, 30 min, 1h, 2h, 4h and 24h after ligation were recorded, respectively. The change of S-T segment (J point) was measured. After 24h ECG was recorded, blood was collected in duplicate via carotid artery intubation. For one sample, serum was separated and the activity of AST, LDH and CK-MB was determined according to the method of the kit; for another sample, it was treated with 3.8% sodium citrate in 1:9 for the purpose of anticoagulation, centrifuged at 1000rpm for 5 minutes to prepare platelet rich plasma (PRP), and centrifuged at 3500rpm for 10 minutes to prepare platelet poor plasma (PPP). The rate of platelet aggregation induced by ADP-2Na was determined according to turbidimetry, the final concentration of ADP was […]; TT, PT, APTT and FIB was determined according to the method of the kit, respectively. The heart was removed quickly after blood taking, and placed into ice cold saline solution to pump out deposit blood in thoracic cavity. The atria and adipose tissue were removed, and water was adsorbed to dryness. The ventricle was weighed, cut into 5 pieces along the coronal, then incubated and stained for 10 minutes in 1% TTC solution at 37°C in darkness. […] The infracted part was cut and weighed. The percentage of infracted part accounting for the total weight of ventricle was calculated, which was the range of myocardial infarction.
# [3] = toxic or adverse effect at high dosage in animal experiments; assay type: in vivo
# [4] = comparative study on solubilities (China Pharmacopeia 2005 terms); assay type: physicochemical; conditions: terms per China Pharmacopeia 2005
# Description: Table 7 Comparison on solubilities of compound A1 of the present invention and scutellarin
# [5] = 20mg/kg, serum 24h after ligation
# [6] = 40mg/kg, serum 24h after ligation
smiles,measurement,setting,value
"COc1ccc(-c2cc(=O)c3c(OC)c(OC)c(OC4O[C@H](C(=O)O)[C@@H](O)[C@H](O)[C@H]4O)cc3o2)cc1 (stereo partly shown) [A1, 4',5,6-trimethoxylscutellarin]",body weight 6h after surgery,[1]; 20mg/kg,258.3 ± 11.9 g
same,body weight 24h after surgery,[1]; 20mg/kg,250.0 ± 15.1 g
same,body weight prior to surgery,[1]; 20mg/kg,268.8 ± 12.4 g
same,range of cerebral infarction,[1]; 20mg/kg gavage once daily 5 days,2.36±1.81 %
same,behavior score,"[1]; 20mg/kg, 6h after modeling",6.42±1.62
same,serum enzymes AST,"[1]; 20mg/kg, 24h after modeling",171.2±71.6 u/L
same,serum enzymes LDH,"[1]; 20mg/kg, 24h after modeling",571.1±287.5 u/L
same,behavior score,"[1]; 20mg/kg, 24h after modeling",4.92±1.31
same,rate of platelet aggregation,"[1]; 20mg/kg, 24h after modeling",50.52±4.07 %
same,range of cerebral infarction rate of decrease,[1]; 20mg/kg,59.10%
same,indicators of coagulation APTT,[1]; 20mg/kg,62.48 ± 29.08 s
same,indicators of coagulation FIB,[1]; 20mg/kg,3.38 ± 1.07 g/L
same,indicators of coagulation PT,[1]; 20mg/kg,25.56 ± 5.30 s
same,indicators of coagulation TT,[1]; 20mg/kg,95.55 ± 24.80 s
same,body weight 6h after surgery,[1]; 40mg/kg,253.8 ± 12.1 g
same,body weight 24h after surgery,[1]; 40mg/kg,244.2 ± 12.2 g
same,body weight prior to surgery,[1]; 40mg/kg,265.8 ± 12.4 g
same,range of cerebral infarction,[1]; 40mg/kg gavage once daily 5 days,2.04±1.43 %
same,behavior score,"[1]; 40mg/kg, 6h after modeling",5.75±1.42
same,serum enzymes AST,"[1]; 40mg/kg, 24h after modeling",152.9±33.0 u/L
same,serum enzymes LDH,"[1]; 40mg/kg, 24h after modeling",472.0±231.9 u/L
same,behavior score,"[1]; 40mg/kg, 24h after modeling",4.25±1.60
same,rate of platelet aggregation,"[1]; 40mg/kg, 24h after modeling",52.38±5.24 %
same,range of cerebral infarction rate of decrease,[1]; 40mg/kg,64.64%
same,indicators of coagulation APTT,[1]; 40mg/kg,75.15 ± 27.41 s
same,indicators of coagulation FIB,[1]; 40mg/kg,3.59 ± 0.76 g/L
same,indicators of coagulation PT,[1]; 40mg/kg,23.43 ± 8.66 s
same,indicators of coagulation TT,[1]; 40mg/kg,62.04 ± 40.80 s
same,change of S-T segment after ligation,"[2]; 20mg/kg gavage once daily 5 days, 5min after ligation",0.17±0.11 mv
same,change of S-T segment after ligation,"[2]; 20mg/kg gavage once daily 5 days, 30min after ligation",0.12±0.09 mv
same,change of S-T segment after ligation,"[2]; 20mg/kg gavage once daily 5 days, 1h after ligation",0.11±0.08 mv
same,change of S-T segment after ligation,"[2]; 20mg/kg gavage once daily 5 days, 2h after ligation",0.11±0.07 mv
same,change of S-T segment after ligation,"[2]; 20mg/kg gavage once daily 5 days, 4h after ligation",0.11±0.08 mv
same,change of S-T segment after ligation,"[2]; 20mg/kg gavage once daily 5 days, 24h after ligation",0.07±0.08 mv
same,rate of platelet aggregation,"[2]; 20mg/kg, 24h after ligation",51.20±7.41 %
same,range of myocardial infarction,[2]; 20mg/kg,3.50±2.68 %
same,range of myocardial infarction rate of decrease,[2]; 20mg/kg,45.65%
same,indicators of coagulation APTT,[2]; 20mg/kg,78.17 ± 28.14 s
same,indicators of coagulation FIB,[2]; 20mg/kg,4.77 ± 1.11 g/L
same,indicators of coagulation PT,[2]; 20mg/kg,25.90 ± 3.51 s
same,indicators of coagulation TT,[2]; 20mg/kg,92.41 ± 42.37 s
same,myocardial enzymology AST,[2]; [5],0.61±0.26 ku/L
same,myocardial enzymology CK-MB,[2]; [5],0.71±0.45 ku/L
same,change of S-T segment after ligation,"[2]; 40mg/kg gavage once daily 5 days, 5min after ligation",0.14±0.12 mv
same,change of S-T segment after ligation,"[2]; 40mg/kg gavage once daily 5 days, 30min after ligation",0.06±0.06 mv
same,change of S-T segment after ligation,"[2]; 40mg/kg gavage once daily 5 days, 1h after ligation",0.05±0.04 mv
same,change of S-T segment after ligation,"[2]; 40mg/kg gavage once daily 5 days, 2h after ligation",0.05±0.04 mv
same,change of S-T segment after ligation,"[2]; 40mg/kg gavage once daily 5 days, 4h after ligation",0.06±0.05 mv
same,change of S-T segment after ligation,"[2]; 40mg/kg gavage once daily 5 days, 24h after ligation",0.02±0.03 mv
same,rate of platelet aggregation,"[2]; 40mg/kg, 24h after ligation",48.22±5.55 %
same,range of myocardial infarction,[2]; 40mg/kg,2.52±2.16 %
same,range of myocardial infarction rate of decrease,[2]; 40mg/kg,60.87%
same,indicators of coagulation APTT,[2]; 40mg/kg,75.96 ± 35.87 s
same,indicators of coagulation FIB,[2]; 40mg/kg,3.95 ± 0.84 g/L
same,indicators of coagulation PT,[2]; 40mg/kg,25.75 ± 5.26 s
same,indicators of coagulation TT,[2]; 40mg/kg,93.04 ± 35.64 s
same,myocardial enzymology AST,[2]; [6],0.61±0.20 ku/L
same,myocardial enzymology CK-MB,[2]; [6],0.80±0.68 ku/L
same,myocardial enzymology LDH,[2]; [6],0.61±0.24 ku/L
same,toxic or adverse effect,[3],No toxic or adverse effect was found
"COCCOC(=O)C1=C(C)NC(C)=C(C(=O)OC(C)C)C1c1cccc([N+](=O)[O-])c1 (stereo not shown) [nimodipine, reference compound]",body weight 6h after surgery,[1]; 50mg/kg,257.1 ± 11.4 g
same,body weight 24h after surgery,[1]; 50mg/kg,249.6 ± 10.5 g
same,body weight prior to surgery,[1]; 50mg/kg,265.8 ± 12.9 g
same,range of cerebral infarction,[1]; 50mg/kg gavage once daily 5 days,2.27±2.56 %
same,behavior score,"[1]; 50mg/kg, 6h after modeling",6.50±1.68
same,serum enzymes AST,"[1]; 50mg/kg, 24h after modeling",198.6±118.2 u/L
same,serum enzymes LDH,"[1]; 50mg/kg, 24h after modeling",536.7±262.8 u/L
same,behavior score,"[1]; 50mg/kg, 24h after modeling",4.83±1.40
same,rate of platelet aggregation,"[1]; 50mg/kg, 24h after modeling",54.15±7.76%
same,range of cerebral infarction rate of decrease,[1]; 50mg/kg,60.66%
same,indicators of coagulation APTT,[1]; 50mg/kg,61.02 ± 44.79 s
same,indicators of coagulation FIB,[1]; 50mg/kg,3.52 ± 1.14 g/L
same,indicators of coagulation PT,[1]; 50mg/kg,23.38 ± 8.23 s
same,indicators of coagulation TT,[1]; 50mg/kg,88.55 ± 32.24 s
O=C(O)[C@H]1O[C@@H](Oc2cc3oc(-c4ccc(O)cc4)cc(=O)c3c(O)c2O)[C@H](O)[C@@H](O)[C@@H]1O [scutellarin],solubility,[4]; 0.01N NaOH,soluble
same,solubility,[4]; 95%EtOH,slightly soluble
same,solubility,[4]; H2O,very slightly soluble
same,solubility,[4]; MeOH,slightly soluble
same,solubility,[4]; n-BuOH,slightly soluble
